Assay results reported in the supplement of paper PMC2824726.

Test system: MDA-MB-231
Assay: shRNA barcode abundance ratio t_end/t_zero (depletion over 4 weeks of proliferation) (log2 ratio); higher = less depletion (weaker anti-proliferative effect of the shRNA)
Conditions: time after t zero 28 days
Method in brief: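 Cells of the MDA-MB-231 line were transduced with a pooled lentiviral shRNA library at an MOI of 0.3 and selected in 0.5 μg/ml puromycin, and genomic DNA was collected from three biological replicates at 5 days (t_zero) and 33 days post-infection. The barcodes were amplified by PCR, labelled with biotin and hybridised for 16 h at 45°C to Geniom One tiling arrays carrying six 25-nt probes per barcode, then detected with streptavidin phycoerythrin. For the abundance ratio, each t_end/t_zero signal ratio is normalised to the subarray median and averaged over background-filtered probes. This average is taken on a log2 scale.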

| Sequence | shRNA barcode abundance ratio t end/t zero (log2) |
| --- | --- |
| AGGCAATTTATCTTGATGTGA (targeted gene: FAIM3) | 0.137 |
| CGACTTAGACTTGACCTATAT (targeted gene: PTEN) | -0.304 |
| GCCAAGTTCTTAGTTGCTGTA (targeted gene: CXCR4) | -1.59 |
| GCAGATGAAGATCATCGAAAT (targeted gene: BRAF) | 0.116 |
| GGCCATTGTCACAGAGGATAA (targeted gene: MLH1) | 0.62 |
| CCTCACCCTGTCAGGTATCAA (targeted gene: MYBL2) | -0.1 |
| GCTAACTGTGTGTACATATAT (targeted gene: PEA15) | -0.216 |
| CCACAGATGTTCATAGACAAT (targeted gene: NFKB1) | 0.547 |
| GGATGTTGGAAATTACTATTA (targeted gene: HDAC1) | 0.178 |
| GCACAGGCTTTATCGAGAATA (targeted gene: IGFBP3) | 0.0415 |
